# According to patent EP4806894A1, “TNAP INHIBITORY COMPOUND AND USE THEREOF” (Rednvia Co., Ltd., priority 2023, dated 2025):
# pIC50: −log10 of the molar value.
# Assays:
# saos-2 cells = assay: Anticalcification efficacy in saos-2 cells (osteogenic medium, Alizarin Red staining); assay type: cell-based; details: test compound 1 µM, 7 days osteogenic medium, Alizarin Red absorbance 540 nm; for inhibition at 1 µM: Homo sapiens, 168 h, read-out: calcification inhibition
# Method: To confirm the inhibitory effect of calcification in saos-2 cells in which calcification is induced by overexpression of TNAP, saos-2 cells were cultured in a culture medium in an incubator at 37°C, 95% humidity, and 5% CO2. RPMI-1640 (Corning) supplemented with 10% FBS (Gibco) and 1% Pen/Strep (Gibco) was used as the culture medium.
# Saos-2 cells were seeded in a 48-well plate at the density of 1.5 x 10^4 cells/well and used in the experiment when they reached 80-90% confluence after stabilization for 2 days.
# After saos-2 cells were cultured in a 48-well plate to 80-90% confluence, the culture medium was removed and replaced with an osteogenic medium (OM). DMEM (Gibco) containing 10% FBS, 1% Pen/Strep, 100 nM dexamethasone (Sigma), 10 mM β-glycerophosphate (Sigma), and 0.05 mM L-ascorbic acid (Sigma) was used as the OM. Osteogenic differentiation of saos-2 cells by OM was induced for 7 days, and OM was replaced every 2 to 3 days.
# When inducing calcification through OM in saos-2 cells, the cells were treated with concentrations of […] of the TNAP inhibitor test compounds with the OM replacement cycle, except for the control group (OM).
# After 7 days of OM induction, the medium was removed from each well and the plate was washed twice with PBS. Cells were fixed with 4% paraformaldehyde for 1 hour, then the fixative was removed and washed twice with deionized water (DW). ARS solution was added to the plate and shaken for 1 hour to stain the cells. When the cells were sufficiently stained red, the dye was removed, the cells were washed carefully with DW, dried, and then photographs were taken of the stained cells. The red-stained area represents calcification induced by OM, and the degree of calcification was determined based on the degree of redness. To quantify this, 10% cetylpyridinium chloride was dispensed into the wells and the dye was dissolved. The dye-dissolved solution was transferred to each well of a 96 well plate and absorbance was measured at 540 nm.
# The degree of decrease in the measured absorbance by the test compounds based on the absorbance for OM was evaluated as the degree of inhibition of calcification.
# TNAP = biological target: T1, TNAP (Homo sapiens, UniProt P05186); assay: TNAP inhibitory activity, colorimetric assay (alkaline phosphatase assay kit ab83369, pNPP substrate); assay type: biochemical; details: TNAP enzyme, 2 hours at room temperature, absorbance 405 nm
# T1 sequence (P05186 18-502 limits assumed): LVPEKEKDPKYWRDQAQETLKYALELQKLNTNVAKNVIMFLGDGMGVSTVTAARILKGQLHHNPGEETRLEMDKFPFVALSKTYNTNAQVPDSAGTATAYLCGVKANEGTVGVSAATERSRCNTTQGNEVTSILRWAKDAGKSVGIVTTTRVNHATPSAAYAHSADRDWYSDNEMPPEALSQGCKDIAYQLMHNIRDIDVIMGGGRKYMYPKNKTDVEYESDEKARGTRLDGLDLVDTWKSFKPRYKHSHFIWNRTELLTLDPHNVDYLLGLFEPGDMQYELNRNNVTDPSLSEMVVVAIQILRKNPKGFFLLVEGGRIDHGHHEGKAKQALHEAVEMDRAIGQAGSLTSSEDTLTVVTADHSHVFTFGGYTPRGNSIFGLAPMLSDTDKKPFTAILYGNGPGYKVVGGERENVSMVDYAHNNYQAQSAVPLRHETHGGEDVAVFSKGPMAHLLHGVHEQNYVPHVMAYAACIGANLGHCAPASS
# Method: The TNAP inhibitory activity of the compounds according to the present invention was analyzed by colorimetric assay.
# The experiments were performed according to the protocol of the alkaline phosphatase assay kit ab83369.
# TNAP enzyme at a concentration of 0.2 ng/µl was dispensed into a 96-well plate (Costar) (10 µl/well), to which the 10-fold diluted test substance was added (15 µl/well). The plate was incubated at room temperature, shielded from light, for 10 minutes to allow the enzyme and compound to act. After incubation, 125 µl of 1 mM substrate (pNPP) was added to each well of the plate, and the plate was incubated for 2 hours at room temperature in a darkened state to allow the enzyme, substrate, and test compound to act. Absorbance was measured at 405 nm using a microplate reader (Tecan spark), and IC50 was calculated using GraphPad Prism 9. The amount of p-nitrophenol produced was calculated through the absorbance, and the degree of TNAP activity inhibition was evaluated through the degree of inhibition of p-nitrophenol production, and the concentration of the compound that inhibited 50% was calculated as the IC50 value.
Compound,calcification inhibition (saos-2 cells),pIC50 (TNAP),inhibition at 1 µM (saos-2 cells) [%]
"2-methoxy-N-(5-oxo-5,6,7,8-tetrahydro-1,6-naphthyridine-3-yl)benzenesulfonamide [Example 26]","A (inhibition of 50% or more was expressed as ""A"")",7.00 to 8.00,–
"4'-(aminomethyl)-4-fluoro-N-(5-oxo-5,6,7,8-tetrahydro-1,6-naphthyridine-3-yl)-[1,1'-biphenyl]-2-sulfonamide hydrochloride [Example 39]","A (inhibition of 50% or more was expressed as ""A"")",7.00 to 8.00,–
"COc1ccc(Br)cc1S(=O)(=O)Nc1cnc2c(c1)C(=O)NC2 [Example 2, 5-bromo-2-methoxy-N-(5-oxo-6,7-dihydro-5H-pyrrolo[3,4-b]pyridine-3-yl)benzenesulfonamide]",–,7.00 to 8.00,≥ 50
"COc1ccc(OC)c(S(=O)(=O)Nc2cnc3c(c2)C(=O)NC3)c1 [Example 3, 2,5-dimethoxy-N-(5-oxo-6,7-dihydro-5H-pyrrolo[3,4-b]pyridine-3-yl)benzenesulfonamide]",–,7.00 to 8.00,≥ 50
"COc1ccc(F)cc1S(=O)(=O)Nc1cnc2c(c1)C(=O)NC2 [Example 4, 5-fluoro-2-methoxy-N-(5-oxo-6,7-dihydro-5H-pyrrolo[3,4-b]pyridine-3-yl)benzenesulfonamide]",–,7.00 to 8.00,≥ 50
"O=C1NCc2ncc(NS(=O)(=O)c3cc(Br)cc4c3OCC4)cc21 [Example 5, 5-bromo-N-(5-oxo-6,7-dihydro-5H-pyrrolo[3,4-b]pyridine-3-yl)-2,3-dihydrobenzofuran-7-sulfonamide]",–,6.00 to 7.00,0 to 50
"COc1ccc(OC)c(S(=O)(=O)Nc2cnc3c(c2)C(=O)NCC3)c1 [Example 7, 2,5-dimethoxy-N-(5-oxo-5,6,7,8-tetrahydro-1,6-naphthyridine-3-yl)benzenesulfonamide]",–,≥ 8.00,≥ 50
"COc1ccc(F)cc1S(=O)(=O)Nc1cnc2c(c1)C(=O)NCC2 [Example 8, 5-fluoro-2-methoxy-N-(5-oxo-5,6,7,8-tetrahydro-1,6-naphthyridine-3-yl)benzenesulfonamide]",–,7.00 to 8.00,≥ 50
"COc1ccc(Br)cc1S(=O)(=O)Nc1cnc2c(c1)C(=O)NCC2 [Example 9, 5-bromo-2-methoxy-N-(5-oxo-5,6,7,8-tetrahydro-1,6-naphthyridine-3-yl)benzenesulfonamide]",–,≥ 8.00,≥ 50
"O=C1NCCc2ncc(NS(=O)(=O)c3cc(Br)cc4c3OCC4)cc21 [Example 10, 5-bromo-N-(5-oxo-5,6,7,8-tetrahydro-1,6-naphthyridine-3-yl)-2,3-dihydrobenzofuran-7-sulfonamide]",–,6.00 to 7.00,≥ 50
"O=C1NCc2ncc(NS(=O)(=O)c3cc(F)ccc3Br)cc21 [Example 11, 2-bromo-5-fluoro-N-(5-oxo-6,7-dihydro-5H-pyrrolo[3,4-b]pyridine-3-yl)benzenesulfonamide]",–,≤ 6.00,≥ 50
"O=C1NCc2ncc(NS(=O)(=O)c3c(F)cc(F)cc3Br)cc21 [Example 12, 2-bromo-4,6-difluoro-N-(5-oxo-6,7-dihydro-5H-pyrrolo[3,4-b]pyridine-3-yl)benzenesulfonamide]",–,≤ 6.00,< 0
"COc1ccc(Cl)cc1S(=O)(=O)Nc1cnc2c(c1)C(=O)NCCC2 [Example 13, 5-chloro-2-methoxy-N-(5-oxo-6,7,8,9-tetrahydro-5H-pyrido[3,2-c]azepine-3-yl)benzenesulfonamide]",–,6.00 to 7.00,≥ 50
"COc1ccc(Br)cc1S(=O)(=O)Nc1cnc2c(c1)C(=O)NCCC2 [Example 14, 5-bromo-2-methoxy-N-(5-oxo-6,7,8,9-tetrahydro-5H-pyrido[3,2-c]azepine-3-yl)benzenesulfonamide]",–,6.00 to 7.00,≥ 50
"COc1ccc(F)cc1S(=O)(=O)Nc1cnc2c(c1)C(=O)NCCC2 [Example 15, 5-fluoro-2-methoxy-N-(5-oxo-6,7,8,9-tetrahydro-5H-pyrido[3,2-c]azepine-3-yl)benzenesulfonamide]",–,6.00 to 7.00,≥ 50
"COc1ccc(OC)c(S(=O)(=O)Nc2cnc3c(c2)C(=O)NCCC3)c1 [Example 16, 2,5-dimethoxy-N-(5-oxo-6,7,8,9-tetrahydro-5H-pyrido[3,2-c]azepine-3-yl)benzenesulfonamide]",–,6.00 to 7.00,≥ 50
"O=C1NCCCc2ncc(NS(=O)(=O)c3cc(Br)cc4c3OCC4)cc21 [Example 17, 5-bromo-N-(5-oxo-6,7,8,9-tetrahydro-5H-pyrido[3,2-c]azepine-3-yl)-2,3-dihydrobenzofuran-7-sulfonamide]",–,≤ 6.00,< 0
"O=C1NCc2ncc(NS(=O)(=O)c3cccc4c3OCC4)cc21 [Example 18, N-(5-oxo-6,7-dihydro-5H-pyrrolo[3,4-b]pyridine-3-yl)-2,3-dihydrobenzofuran-7-sulfonamide]",–,≤ 6.00,< 0
"O=C1NCCc2ncc(NS(=O)(=O)c3cccc4c3OCC4)cc21 [Example 19, N-(5-oxo-5,6,7,8-tetrahydro-1,6-naphthyridine-3-yl)-2,3-dihydrobenzofuran-7-sulfonamide]",–,≤ 6.00,< 0
"O=C1NCc2ncc(NS(=O)(=O)c3cc(Cl)cc4c3OCC4)cc21 [Example 20, 5-chloro-N-(5-oxo-6,7-dihydro-5H-pyrrolo[3,4-b]pyridine-3-yl)-2,3-dihydrobenzofuran-7-sulfonamide]",–,≤ 6.00,< 0
"O=C1NCc2ncc(NS(=O)(=O)c3cc(F)cc4c3OCC4)cc21 [Example 21, 5-fluoro-N-(5-oxo-6,7-dihydro-5H-pyrrolo[3,4-b]pyridine-3-yl)-2,3-dihydrobenzofuran-7-sulfonamide]",–,≤ 6.00,< 0
"O=C1NCCc2ncc(NS(=O)(=O)c3cc(Cl)cc4c3OCC4)cc21 [Example 22, 5-chloro-N-(5-oxo-5,6,7,8-tetrahydro-1,6-naphthyridine-3-yl)-2,3-dihydrobenzofuran-7-sulfonamide]",–,6.00 to 7.00,≥ 50
"O=C1NCCc2ncc(NS(=O)(=O)c3cc(F)cc4c3OCC4)cc21 [Example 23, 5-fluoro-N-(5-oxo-5,6,7,8-tetrahydro-1,6-naphthyridine-3-yl)-2,3-dihydrobenzofuran-7-sulfonamide]",–,≤ 6.00,< 0
"O=C1NCCc2ncc(NS(=O)(=O)c3ccc4c(c3)OCCO4)cc21 [Example 24, N-(5-oxo-5,6,7,8-tetrahydro-1,6-naphthyridine-3-yl)-2,3-dihydrobenzo[b][1,4]dioxine-6-sulfonamide]",–,≤ 6.00,< 0
"O=C1COc2ccc(S(=O)(=O)Nc3cnc4c(c3)C(=O)NCC4)cc2N1 [Example 25, 3-oxo-N-(5-oxo-5,6,7,8-tetrahydro-1,6-naphthyridine-3-yl)-3,4-dihydro-2H-benzo[b][1,4]oxazine-6-sulfonamide]",–,≤ 6.00,< 0
"COc1ccc(Cl)cc1S(=O)(=O)Nc1cncc(C(N)=O)c1 [SBD-425, reference compound]",–,6.00 to 7.00,–
